Source: paper PMC10591299, “Targeting SHP2 with an Active Site Inhibitor Blocks Signaling and Breast Cancer Cell Phenotypes” (ACS Bio & Med Chem Au, 2023)

How the values were obtained:
PTP1B = target: T1, PTP1B (Homo sapiens, UniProt P18031); experiment: PTPase assay, GST-fusion PTP domain of PTP1B, DiFMUP substrate; type: biochemical
T1 construct: The GST fusion PTP domains of SHP1 and PTP1B were expressed and purified in a fashion similar to that of SHP2; GST; made in house
T1 sequence (P18031 3-277 limits assumed): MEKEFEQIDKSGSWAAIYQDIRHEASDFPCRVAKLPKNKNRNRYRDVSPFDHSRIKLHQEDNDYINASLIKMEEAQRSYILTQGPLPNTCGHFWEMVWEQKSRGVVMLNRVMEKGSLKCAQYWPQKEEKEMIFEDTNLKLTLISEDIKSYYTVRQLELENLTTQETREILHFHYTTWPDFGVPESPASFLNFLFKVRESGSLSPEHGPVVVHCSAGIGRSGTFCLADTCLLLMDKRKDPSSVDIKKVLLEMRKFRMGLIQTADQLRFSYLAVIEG
Procedure: (§1) After completion of synthesis, both CNBCA and CNBBA were purified on silica gel, and purity was determined by HPLC. The purified compounds were then tested for their effect on the SHP2 enzyme activity and on the activity of the selected control PTPs (SHP1 and PTP1B) by the phosphotyrosyl phosphatase (PTPase) assay as described previously.[30],[31] First, the GST fusion of the PTP domains of SHP2, SHP1, and PTP1B were produced and purified as reported by us previously.[32] The reactions were performed in a buffer containing 10 mM Tris-HCl (pH 7.2), 100 mM NaCl, 1 mM EDTA, 1 mM dithiothreitol (DTT), and 0.01% Tween-20. […] The complete mixture was incubated at 37 °C for 20 min, and fluorescence intensity was measured by the Synergy 4 plate reader at the excitation and emission wavelengths of 360 and 460 nm, respectively. The half inhibitory concentration (IC50) value of each compound was calculated and plotted using Graphpad Prism software. […]
(§2) We used the PTPase assay described previously[30],[31] to evaluate the effect of the newly synthesized compounds on the enzymatic activity of SHP2, SHP1, and PTP1B. […] The mixtures were incubated at 37 °C for 20 min and transferred to 96 well plates, and the fluorescence intensity was measured by a Synergy 4 plate reader at the excitation and emission wavelengths of 360 and 460 nm, respectively. […]

MDA-MB468 cells = experiment: Colony formation in soft agar, MDA-MB468; type: cell-based; conditions: MDA-MB468, 500 nM, 10 days, versus vehicle
Procedure: Since SHP2 is essential for the growth and transformation of BC cells,[8],[9],[11] we determined the effect of SHP2 inhibition with CNBCA in 2D and 3D culture systems. For the effect on cell growth, BC cells (BT474 and MDA-MB468) were seeded in 2D culture and treated with a single concentration of CNBCA (500 nM), the concentration that provided a 50% inhibition of SHP2 mediated signaling in BT474 cells. Images were collected at the start and every 24 h for a total of 72 h (3 days). […] For effect on anchorage independent growth, approximately 10^6 cells were seeded in soft agar as described previously,[24] and treated with CNBCA at 500 nM concentration for 10 days with refeeding and adjustment of compound concentration. […] Finally, the effect of CNBCA on cancer stem cell properties was determined by the suspension assay, in which only cells with stem-like properties only can grow and form mammospheres.[7],[24],[36] Approximately 10^6 cells were seeded in nonadherent 6 cm plates and treated with CNBCA (500 nM) for 10 days with complementation of media and drug concentration.
For colony formation studies, we used the soft agar assay, which keeps cells anchorage independently, allowing determination on the transformation phenotype of cancer cells, including breast cancer cells.[11],[35] For this assay, we first prepared a 5% stock suspension in PBS by boiling it in a microwave. […]

SHP1 = target: T2, SHP1 (Homo sapiens, UniProt P29350); experiment: PTPase assay, GST-fusion PTP domain of SHP1, DiFMUP substrate; type: biochemical
T2 construct: The GST fusion PTP domains of SHP1 and PTP1B were expressed and purified in a fashion similar to that of SHP2; GST; made in house
T2 sequence (P29350 244-515 limits assumed): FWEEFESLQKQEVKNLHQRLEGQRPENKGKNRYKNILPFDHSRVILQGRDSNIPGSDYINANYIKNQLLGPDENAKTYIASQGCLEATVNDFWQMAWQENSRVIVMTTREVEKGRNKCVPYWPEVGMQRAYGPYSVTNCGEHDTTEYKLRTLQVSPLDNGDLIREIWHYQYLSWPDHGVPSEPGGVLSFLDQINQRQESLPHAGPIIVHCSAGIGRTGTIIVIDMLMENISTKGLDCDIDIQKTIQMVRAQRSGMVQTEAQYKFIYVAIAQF
Procedure: as §1, §2

Structure (SMILES): CCCCCCCCCOc1ccc(-c2ccc(C(=O)O)cc2)cc1CCCC(=O)O [CNBCA, 3′-(3-carboxypropyl)-4′-(nonyloxy)-[1,1′-biphenyl]-4-carboxylic acid]
- IC50 (PTP1B; PTP domain, 1 nM enzyme, 10 μM DiFMUP): 25 µM
- selectivity ratio PTP1B versus SHP2 (PTP1B; SHP2 IC50 as reference): 28.73 fold
- colony formation in soft agar (MDA-MB468 cells): fewer and smaller colonies
- IC50 (SHP1; PTP domain, 1 nM enzyme, 35 μM DiFMUP): 34.6 µM
- selectivity ratio SHP1 versus SHP2 (SHP1; SHP2 IC50 as reference): 39.77 fold
